Data from article PMC9115881, “Penicillin Derivatives Inhibit the SARS-CoV-2 Main Protease by Reaction with Its Nucleophilic Cysteine” (Journal of Medicinal Chemistry, 2022).
“Also recorded” adds a separate entry of the source.

Tests used:
SARS-CoV-2 M^pro [1] = molecular target: T1, SARS-CoV-2 M^pro (Severe acute respiratory syndrome coronavirus 2, UniProt P0DTD1); conditions: earlier SPE-MS M^pro assay; cited from earlier work
SARS-CoV-2 M^pro [2] = molecular target: T1, SARS-CoV-2 M^pro; assay: Protein-observed M^pro assay (SPE-MS), covalent modification; assay type: binding; conditions: M^pro 2.0 μM, inhibitor 11 or 33 μM, 45 min
Method: Selected compounds were tested for reaction with M^pro using protein-observed MS to inform on their mechanism of inhibition (Figure 2). Initially, M^pro was incubated with a ∼6-fold excess of the penicillin sulfone ester for 45 min and then analyzed by MS. […] When the inhibitor concentration was increased to ∼17-fold to account for the possibility of modifying all 12 M^pro cysteine or other residues, only low levels of a second covalent M^pro modification by the inhibitors were observed (Figure 2A–C). No evidence for fragmentation of the inhibitors once bound to M^pro was accrued.
Solutions of the inhibitors (100% DMSO) were dry-dispensed across 384-well polypropylene assay plates (Greiner) (for 11 or 33 μM top concentrations) using an ECHO 550 acoustic dispenser (Labcyte). DMSO was used as a negative control. Each reaction was performed in technical duplicates. The enzyme mixture (50 μL/well), containing M^pro (2.0 μM) in buffer (20 mM HEPES, pH 7.5), was dispensed across the penicillin-containing 384-well assay plates with a multidrop dispenser (Thermo Fischer Scientific). The reaction mixture was incubated for 45 min at 20 °C under an ambient atmosphere prior to analysis by SPE-MS.
MS analyses were performed using a RapidFire RF 365 high-throughput sampling robot (Agilent) attached to an iFunnel Agilent 6550 accurate mass Q-TOF mass spectrometer using a C4 cartridge and the same parameters as described above, with the exception of the gas temperature that was reduced to 225 °C. Protein spectra were deconvoluted for the m/z range 850–1350 Da, with a resolution of 2 Da and with a 10–60 kDa cutoff using the MaxEnt1 function in Agilent MassHunter Version 7. The deconvoluted files were extracted as csv files, sorted using Enthought Canopy GUI, and normalized and plotted using GraphPad Prism 9.

SARS-CoV-2 M^pro [3] = molecular target: T1, SARS-CoV-2 M^pro; assay: SPE-MS M^pro inhibition assay, 11mer peptide substrate; assay type: biochemical
SARS-CoV-2 M^pro [4] = molecular target: T1, SARS-CoV-2 M^pro; assay: biochemical; assay type: biochemical; conditions: for IC50: M^pro […], 37mer substrate 2.0 μM, mean ± SD, n ≥ 2, read-out: IC50
[5] = molecular target: T2, active site (Cys145) TPCK-blocked M^pro (Severe acute respiratory syndrome coronavirus 2, UniProt P0DTD1); assay: Protein-observed M^pro assay after preincubation with TPCK; assay type: binding, SARS-CoV-2; conditions: M^pro 2.0 μM preincubated with TPCK 10 μM for 180 min, then inhibitor 60 min
T2 construct: employing SARS-CoV-2 M^pro (2.0 μM); made in house

SARS-CoV-2 M^pro [6] = molecular target: T1, SARS-CoV-2 M^pro; assay: Cocrystallization with M^pro, crystal structure; conditions: 2.0 Å resolution, PDB 7Z59
From the text: To investigate the mode of M^pro inhibition by penicillin derivatives, we carried out crystallographic studies and obtained a structure of M^pro complexed with a penicillin sulfone 20e-derived ligand following cocrystallization (C2 space group, 2.0 Å resolution; Supporting Information Figure S7). The structure was solved by molecular replacement using a reported M^pro structure (PDB ID: 6YB7([29])) as a search model. The overall fold of the structure is similar to those previously reported for M^pro (RMSD = 0.41 Å for M^pro complexed with PF-07321332 (8, nirmatrelvir; PDB ID: 7VH8);[68] Supporting Information Figure S7).
A frozen SARS-CoV-2 M^pro solution was thawed and diluted to 6 mg/mL (using 20 mM HEPES, pH 7.5, 50 mM NaCl). β-Lactam 20e was added to the protein solution to a final concentration of 10 mM; the mixture was incubated for 2 h at ambient temperature prior to dispensing the plates. The drop composition was: 0.15 μL protein–ligand solution, 0.3 μL 11%v/v PEG 4000, 0.1 M MES, pH 6.5, and 0.05 μL M^pro crystal seed stock. A M^pro crystal seed stock was prepared by crushing M^pro crystals with a pipette tip, suspending them in 30% PEG 4000, 5%v/v DMSO, 0.1 M MES pH 6.5, and vortexing for 60 s with approximately 10 glass beads (1.0 mm diameter, BioSpec products). The reservoir solution was: 11%v/v PEG 4K, 5%v/v DMSO, 0.1 M MES, pH 6.5. […]

[7] = Table 3, compounds 25c, 25g: 11mer peptide as substrate, M^pro […], substrate 2.0 μM, read-out: IC50

## CC1(C)[C@H](C(=O)OCc2ccccc2)N2C(=O)[C@@H](NC(=O)COc3ccccc3)[C@H]2S1(=O)=O [Compound 10, penicillin V sulfone benzyl ester]
SARS-CoV-2 M^pro [1]
  M^pro inhibition, reported result in words: inhibits M^pro by reaction with the active site cysteine residue
SARS-CoV-2 M^pro [2]
  covalent modification of M^pro by protein-observed MS: covalent reaction with Cys145; also recorded: covalent reaction with a single nucleophilic protein residue; also recorded: clear evidence for the covalent reaction
SARS-CoV-2 M^pro [3]; Table S1, M^pro 0.15 μM, TSAVLQ/SGFRK-NH2 2.0 μM, technical duplicates n = 2, mean ± SD, read-out: IC50 [μM] (11mer peptide)
  IC50: 8.7 ± 0.2 µM
SARS-CoV-2 M^pro [4]; Table 1, 15 min preincubation
  IC50: 6.6 ± 2.7 µM
SARS-CoV-2 M^pro [4]; Table 3
  IC50: 6.6 ± 2.7 µM
[5]
  covalent reaction with TPCK-pretreated M^pro by protein-observed MS: reaction is ablated by pretreatment of M^pro with the active site binding inhibitor TPCK; also recorded: do not efficiently react covalently

## CC1(C)[C@H](C(=O)OCc2ccccc2)N2C(=O)[C@@H](NC(=O)Cc3ccccc3)[C@H]2S1(=O)=O [Compound 11, penicillin G sulfone benzyl ester]
SARS-CoV-2 M^pro [1]
  M^pro inhibition, reported result in words: inactive
SARS-CoV-2 M^pro [4]; SPE-MS inhibition assay
  M^pro inhibition, result in words: did not inhibit M^pro
SARS-CoV-2 M^pro [4]; Table 3
  IC50: > 50 µM

## CC1(C)[C@H](C(=O)OCc2ccccc2)N2C(=O)[C@H](NC(=O)COc3ccccc3)[C@H]2S1(=O)=O [Compound 16, (6S)-penicillin V sulfone benzyl ester]
SARS-CoV-2 M^pro [3]; Table 1, compounds 15, 16: 11mer peptide as substrate, M^pro […], substrate 2.0 μM, read-out: IC50
  IC50: > 50 µM

## CC1(C)[C@H](C(=O)OCc2ccc(F)cc2F)N2C(=O)[C@@H](NC(=O)COc3ccccc3)[C@H]2S1(=O)=O [Compound 20e]
SARS-CoV-2 M^pro [6]
  covalent modification seen in the crystal structure: active site Cys145 S-acylation

## C#CCOC(=O)[C@@H]1N2C(=O)[C@@H](NC(=O)COc3ccccc3)[C@H]2S(=O)(=O)C1(C)C [Compound 20q]
SARS-CoV-2 M^pro [2]
  covalent modification of M^pro by protein-observed MS: covalent reaction with Cys145; also recorded: covalent reaction with a single nucleophilic protein residue; also recorded: clear evidence for the covalent reaction
SARS-CoV-2 M^pro [4]; Table 2
  IC50: 3 ± 0.4 µM
[5]
  covalent reaction with TPCK-pretreated M^pro by protein-observed MS: reaction is ablated by pretreatment of M^pro with the active site binding inhibitor TPCK; also recorded: do not efficiently react covalently

## Cc1onc(-c2c(Cl)cccc2Cl)c1C(=O)N[C@@H]1C(=O)N2[C@@H](C(=O)OCc3ccccc3)C(C)(C)S(=O)(=O)[C@H]12 [Compound 25c]
SARS-CoV-2 M^pro [3]; [7]
  IC50: > 50 µM

## CCN1CCC(NC(=O)N[C@@H](C(=O)N[C@@H]2C(=O)N3[C@@H](C(=O)OCc4ccccc4)C(C)(C)S(=O)(=O)[C@H]23)c2ccccc2)C(=O)C1=O (some centres unmarked) [Compound 25g]
SARS-CoV-2 M^pro [3]; [7]
  IC50: > 50 µM

## CC1(C)[C@H](C(=O)O)N2C(=O)C[C@H]2S1(=O)=O [Compound 33, sulbactam, reference compound]
SARS-CoV-2 M^pro [1]
  M^pro inhibition, reported result in words: inability of sulbactam to inhibit M^pro
